Source: patent US20100015249A1, “Antitumor agent containing 6'-amidino-2'-naphthyl 4-guanidinobenzoate or salt thereof” (priority 2005, published 2010)

Tests used:
[1] = tested on: human pancreas cancer cell line MDAPanc-28; experiment: MTT assay of cell survival rate / living cell ratio; assay type: cell-based
Protocol: The present inventors examined the concomitant effect of FUT and TNF-α on apoptosis in cancer cells. After treatment with TNF-α for 24 hours, the human pancreas cancer cell line MDAPanc-28 was further cultured for 24 hours with various concentrations of FUT being added. Cells prepared were then subjected to an MTT assay according to the method generally known to calculate the cell survival rates. Also, DNA was extracted to perform a DNA fragmentation assay.
More specifically, with regard to the MTT assay, each well was seeded with 2000 cells per 100 μl of culture medium in a 96-well microtiterplate, followed by the above mentioned treatment. After plate centrifugation, each well received 5 mg/ml of MTT (Sigma) PBS solution instead of culture medium and was incubated for 4 hours at 37° C. After removing the supernatant, 100 μl of DMSO were added to dissolve the cells. The absorbance of the samples was measured at 570 nm by using a microplate reader. 8 wells were subjected to the same condition in this experiment. Two independent experiments were performed, and the average was calculated.
However, the agents are of different types with different mechanisms of action. Therefore, the present inventors examined the effect of each agent on the living cell ratio in the human pancreas cancer cell line MDAPanc-28 singularly. After being treated with each agent for 24 hours and 48 hours, the human pancreas cancer cell line MDAPanc-28 was subjected to a MTT assay. The MTT assay was performed by the method described in Example 9.

[2] = tested on: human pancreas cancer cell line MDAPanc-28; experiment: Apoptosis ratio by flow cytometry (propidium iodide, FACScan); assay type: cell-based; details: MDAPanc-28, pretreatment with the agent 3 hours then gemcitabine 48 hours, compared with gemcitabine alone
Protocol: The present inventors next examined the effect of these agents on apoptosis induction in the human pancreas cancer cell line MDAPanc-28. […] Flow cytometry was used to confirm the occurrence of apoptosis. Cells were collected after treatments with the agents and fixed in 70% ethanol at −20° C. for 24 hours. After rinsing with PBS, cells were suspended in PBS containing 50 μg/ml of propium iodide, 0.1% Triton X-100, 0.1% sodium citrate and 1 μg/ml of DNase free RNase. The samples were incubated at room temperature for 30 minutes and the amount of DNA was measured by using FACScan.

## N=C(N)c1ccc2cc(OC(=O)c3ccc(N=C(N)N)cc3)ccc2c1 [FUT, 6-amidino-2-naphthyl p-guanidinobenzoate dimethanesulfonate]
[1]; MDAPanc-28, TNF-α 24 hours then various concentrations of FUT 24 hours, MTT, compared with control cells
  cell survival rate: significantly declined
[1]; MDAPanc-28, comparison of FUT with PS1145
  speed of inhibitory effect on proliferation: more rapid inhibitory effect than PS1145
[1]; MDAPanc-28, single agent, 24 hours and 48 hours, MTT
  cell proliferation / living cell ratio: inhibited in a FUT concentration-dependent manner
[1]; MDAPanc-28, single agent, MTT
  living cell ratio at 48 hours compared to 24 hours: slightly increased at 48 hours compared to the ratio at 24 hours
[2]
  apoptosis induction in combination with gemcitabine: further enhanced the effect on apoptosis induction
